In article PMC9101764, “Synthesis and In Vitro Characterization of Selective Cannabinoid CB2 Receptor Agonists: Biological Evaluation against Neuroblastoma Cancer Cells” (Molecules, 2022):

How the values were obtained:
hCB2R [1] = biological target: T1, hCB2R (Homo sapiens, UniProt P34972); experiment: HitHunter cAMP assay: inhibition of FSK-stimulated cAMP accumulation in CHO cells; assay type: cell-based
T1 construct: host or cells: HitHunter CHO-K1 cells
Experimental: For the cAMP inhibition assay, cells were treated with 10 μM FSK and synthetized compounds for 90 min to assess compound concentration-dependent activity.
(§1) CHO cells stably expressing hCB1R or hCB2R were maintained at 37 °C and 5% CO2 in Gibco Ham’s F-12 nutrient mix (Fisher Scientific, Loughborough, UK ) supplemented with 2 mM L-glutamine, 10% fetal bovine serum (FBS), 0.6% penicillin−streptomycin (Fisher Scientific, Loughborough UK), and the disulfate salt of geneticin (G418) as previously described (Sigma-Aldrich, Poole, UK). For subsequent radioligand displacement assays, membranes were prepared by scraping cells from flasks, centrifuging the cells, and storing the cell pellet at −20 °C. When required for us, cell pellets were defrosted and diluted in tris buffer (50 mM Tris-HCl and 50 mM Tris-base). As we have described in previous studies, HitHunter (cAMP) and PathHunter (βarrestin2) CHO-K1 cells stably expressing hCB1R or hCB2R from DiscoveRx® (Eurofins, Fremont, CA, USA) were maintained at 37 °C, 5% CO2 in F-12 DMEM containing 10% FBS and 1% Pen/Strep with 800 µg/mL geneticin (HitHunter) or 800 µg/mL G418 and 300 µg/mL hygromycin B (PathHunter).
The quantification of FSK-stimulated cAMP accumulation using the DiscoveRx HitHunter assay (DiscoveRx, Eurofins, Fremont, CA, USA) has been described in detail previously elsewhere. Briefly, 20,000 cells/well were plated in low-volume 96-well plates and incubated overnight in Opti-MEM with 1% FBS at 37 °C and 5% CO2. The next day, the media were replaced with cell assay buffer (DiscoveRx). Immediately after this, the cells were simultaneously treated with 10 µM FSK and ligands for 90 min. Subsequent additions of cAMP antibody solution and cAMP working detection solutions followed the manufacturer’s directions (DiscoveRx) and cells were stored for 60 min at room temperature. cAMP solution A (DiscoveRx) was added according to the manufacturer’s directions followed by another 60 min room temperature incubation prior to chemiluminescence being measured on a Cytation5 plate reader (top read, gain 200, integration time 10,000 ms).
(§2) Estimates of Ki, EC50, and Emax were determined using non-linear regression three-parameters (GraphPad, Prism, v. 9.0).
(§3) Data are fitted to a non−linear regression (three parameter model, GraphPad v. 9.0). Data are mean ± S.E.M. of 6 independent experiments performed in triplicate.

hCB2R [2] = biological target: T1, hCB2R; experiment: [3H]CP55,940 radioligand displacement assay, CHO cell membranes; assay type: binding
Experimental: as §1
(§4) We have previously described radioligand displacement assays in detail. […] Binding reactions were terminated by ice-cold tris binding buffer and subsequent vacuum filtration (24-well sampling manifold (Brandel cell harvester; Brandel Inc., Gaithersburg, MD, USA)) using Brandel GF/B filters soaked in wash buffer at 4 °C for at least 24 h. Filters were washed with 1.2 mL of tris-binding buffer six times, then oven-dried for 60 min before being incubated in 3 mL of scintillation fluid (Ultima Gold XR, PerkinElmer, Seer Green, Buckinghamshire, UK). Radioactivity was quantified by liquid scintillation spectrometry. All compounds were first prepared at 10 mM solutions in DMSO. The final vehicle concentration for assays was 0.1% DMSO. All assays were performed in duplicate.
as §2

hCB1R = biological target: T2, hCB1R (Homo sapiens, UniProt P21554); experiment: as above; assay type: binding
T2 construct: expressed in transfected cells; host or cells: CHO cells (membranes)
T2 sequence (P21554 whole entry): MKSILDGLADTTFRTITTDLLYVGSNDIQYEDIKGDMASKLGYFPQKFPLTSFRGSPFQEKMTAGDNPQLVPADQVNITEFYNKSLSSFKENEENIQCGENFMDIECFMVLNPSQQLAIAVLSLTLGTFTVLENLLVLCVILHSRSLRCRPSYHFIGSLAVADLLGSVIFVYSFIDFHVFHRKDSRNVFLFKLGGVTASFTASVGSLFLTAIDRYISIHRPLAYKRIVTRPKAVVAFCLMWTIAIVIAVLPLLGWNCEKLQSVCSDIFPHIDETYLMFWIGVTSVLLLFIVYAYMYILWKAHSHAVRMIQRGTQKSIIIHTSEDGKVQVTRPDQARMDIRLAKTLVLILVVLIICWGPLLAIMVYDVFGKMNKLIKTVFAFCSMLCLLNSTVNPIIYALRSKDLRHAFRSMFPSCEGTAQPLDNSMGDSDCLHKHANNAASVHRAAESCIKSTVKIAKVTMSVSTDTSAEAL
Experimental: as §1, §4, §2

hCB2R [3] = biological target: T1, hCB2R; experiment: PathHunter β-arrestin2 recruitment assay in CHO cells; assay type: cell-based
Experimental: Compounds FG158a, FG160a, FG161a, and LV62 were also evaluated for their ability to recruit β-arrestin2, since G protein-coupled receptors also interact with β-arrestin, which facilitates receptor internalization, recycling, degradation, and signaling.
as §1
The quantification of β-arrestin2 recruitment using the DiscoveRx PathHunter assay has been described by our group previously and is summarized here.. Twenty thousand cells/well were grown overnight in Opti-MEM containing 1% FBS at 37 °C and 5% CO2 in low-volume 96 well plates. The next day, cells were treated with compounds for 90 min at 37 °C. Detection solution was added to cells according to the manufacturer’s directions (DiscoveRx) and cells were stored for 60 min at room temperature. After this incubation, chemiluminescence was quantified on a Cytation5 plate reader (top read, gain 200, integration time 10,000 ms).
as §2, §3

[4] = CHO membranes, 0.1 nM-10 μM compounds

T1 sequence (P34972 whole entry): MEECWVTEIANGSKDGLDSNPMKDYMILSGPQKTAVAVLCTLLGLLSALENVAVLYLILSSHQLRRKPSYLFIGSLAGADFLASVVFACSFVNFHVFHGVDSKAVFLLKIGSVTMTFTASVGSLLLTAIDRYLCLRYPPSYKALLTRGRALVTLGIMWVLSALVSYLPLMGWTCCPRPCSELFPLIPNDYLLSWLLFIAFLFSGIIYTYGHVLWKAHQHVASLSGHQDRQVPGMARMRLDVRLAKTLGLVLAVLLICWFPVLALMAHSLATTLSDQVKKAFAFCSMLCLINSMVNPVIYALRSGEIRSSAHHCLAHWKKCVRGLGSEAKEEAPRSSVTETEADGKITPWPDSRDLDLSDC

## CC1CCC(NC(=O)c2cc3cccnc3n(CCCCCBr)c2=O)CC1 (stereo not drawn) [FG158a, 1-(5-bromopentyl)-N-(4-methylcyclohexyl)-2-oxo-1,2-dihydro-1,8-naphthyridine-3-carboxamide]
hCB2R [1]
  EC50: > 10 µM
hCB2R [1]; CHO cells expressing hCB2R, 10 μM FSK, 90 min
  modulation of cAMP response: not to affect this signaling pathway
hCB2R [2]
  Ki: 0.021 µM
hCB2R [2]; [4]
  displacement of [3H]CP55,940 at hCB2R: fully displaced [^3H]CP55,940
hCB1R
  Ki: > 10 µM
hCB1R; [4]
  displacement of [3H]CP55,940 at hCB1R: not able to displace [^3H]CP55,940
other
  melting point: 121 to 123 °C
hCB2R [3]
  EC50: > 10 µM
hCB2R [3]; CHO cells expressing human CB2R, 90 min
  β-Arrestin2 Recruitment Emax (% CP55,940) ± S.E.M: 46 ± 1.8 % CP55,940
